The term melting point denotes the temperature of the solid-liquid transition. In turn, `O=C(O)c1ccc2c(c1)CCc1c(Cl)cccc1C2=O` returned a melting point of 258 to 260 °C.
As to `Cc1oc(-c2cccs2)nc1COc1ccc(Cn2cc(CCC(=O)O)c(-c3ccccc3)c2)cc1`, the melting point was in the range of 117 to 118 °C.
To `CCn1cc2c3c(cccc31)CN(C(=O)OCc1ccccc1)C2` belongs 112 to 114 °C; to `O=C(O)c1ccc2c(c1)C(=O)C(c1nc3ccccc3cc1O)C2=O` (stereo unspecified), > 350 °C; to `O=C(NC(P(=O)(O)O)P(=O)(O)O)c1cc2ccccc2s1`, 234 to 238 °C.
The figure for `CN1C(=O)CN=C(c2cccc(Cl)c2)c2cc(C(O)(c3ccc(Cl)cc3)c3cncn3C)ccc21` (stereo unspecified) is 226 °C; for `C=CCN(CC=C)C(=O)n1cnc(S(=O)(=O)CC)n1` it is 39 to 42 °C; for `Oc1ccc2c(c1)nnc1ccccc12` it is 274 to 277 °C.
`CCCCc1nc2c(=O)[nH]ccc2n1Cc1ccc(-c2ccccc2C#N)cc1` yielded a melting point of 179 °C.
The figure for `O=c1c(-c2ccc(Cl)cc2)c(CCC2CC2)nc2ccccn12` is 126 to 127 °C; for `Cn1c(=O)ccc2cnc(NCc3ccccc3)nc21` it is 160 to 162 °C; for `O=C(c1ccc(-c2ccc(-c3ccc(-c4ccc(C(=O)c5c(F)c(F)c(F)c(F)c5F)s4)s3)s2)s1)c1c(F)c(F)c(F)c(F)c1F` it is 291 to 294 °C.
To `CCCc1nn(C)c2c(=O)n(CCCOc3ccc(SC(C)(C)C(=O)O)cc3)c(C)nc12` belongs 140 to 142 °C; to `Cc1cc(S(=O)(=O)c2ccccc2)ccc1[N+](=O)[O-]`, 70 to 71 °C; to `CCCCCCCCCCOc1ccc(-c2ccc(CCC(C)O)cc2)cc1` (single isomer, unassigned; (+)), 87 to 89 °C.
The figure for `O=S(=O)(Nc1ccc2c(OCc3csc(-c4ccc(Cl)nc4)n3)cccc2c1)C(F)(F)F` is 154 to 156 °C; for `CS(=O)(=O)c1ccc(Oc2ccc(Cl)cc2)cc1` it is 109 to 111 °C.
`NC(=O)Oc1cccc2ccccc12` had a melting point of 118 °C.
`C(=C/c1cn(C(c2ccccc2)(c2ccccc2)c2ccccc2)cn1)/CCOCc1ccccc1` returned a melting point of 101 to 104 °C.
To `O=C(O)COc1c(Cl)cc(Cl)cc1COc1cccc(OCc2ccc3cc(F)ccc3n2)c1` belongs 189 to 190 °C; to `O=S(=O)(c1c(-c2ccc(Cl)cc2)[nH]c(Br)c1Br)C(F)(F)C(F)F`, 138 to 141 °C; to `CCCc1c(OCCCCCOc2cccc(NC(=O)C(=O)O)c2)ccc(C(C)=O)c1O`, 117 to 118 °C.
To `COc1ccc([C@@H]2C[C@H]2CNC(=O)N(C)O)cc1` (relative stereo) belongs 112 °C; to `CS(=O)(=O)c1ccc(C(CC2CCCC2)C(=O)O)cc1C#N` (stereo unspecified), 180 to 181 °C; to `CC(C)(C)c1cc(Cn2nc(CCCCc3nn(Cc4cc(C(C)(C)C)c(O)c(C(C)(C)C)c4)c(=O)o3)oc2=O)cc(C(C)(C)C)c1O`, 190 °C.
To `Clc1ccc2c(c1)C(c1ccccc1Cl)OCc1nnc(Br)n1-2` (stereo unspecified) belongs 167 to 168 °C; to `C[Si](C)(C)OC1c2cc(Br)ccc2-c2ccc(Br)cc2C1O[Si](C)(C)C` (stereo unspecified), 144 to 145 °C; to `CCCNC(=S)NS(=O)(=O)c1cc2c(cc1OC)OCC(NC(=O)c1cc(Cl)ccc1OC)C2` (stereo unspecified), 182 °C.
`CN1CC(=O)Nc2cccc(Br)c2C1=O` registered a melting point of 232 to 233 °C.
To `O=C(NC(c1ccccc1)c1cc2ccncc2[nH]1)c1ccccc1` (stereo unspecified) belongs 206 to 208 °C; to `CC(C)Cc1ccc2c(c1)OC(=O)C2`, 24 to 25 °C; to `CCC(=S)c1ccc(NS(C)(=O)=O)c(Oc2ccc(F)cc2F)c1`, 74 to 76 °C.
To `CCCCCCCCOC(=O)C=CC(=O)OC(=C1C(=O)N(C(N)=O)c2cc(Cl)c(F)cc21)c1cccs1` belongs 140 to 148 °C; to `CC(C)[C@@H]1O[C@](C#CC2CC2)(C(F)(F)F)c2cc(Cl)ccc2NC1=O` (relative stereo), 167 °C.
To `O=C(O)CC1(C(=O)O)CCOc2ccc(C(=O)O)cc21` (stereo unspecified) belongs 198 to 200 °C; to `C[Si](C)(C)C#Cc1c(C#N)nn(-c2c(Cl)cc(OC(F)(F)F)cc2Cl)c1N`, 152 °C; to `Cc1cc(C)c2[nH]c(=O)c(O)cc(=O)c2c1`, 211 to 213 °C.
For the compound `NC(=O)C1CCCc2c1c1cc(OCCCC(=O)O)ccc1n2Cc1ccccc1` (stereo unspecified), the melting point was in the range of 199 to 200 °C.
The figure for `COc1cccc([C@H]2O[C@H](CC(=O)Nc3ccc(OCCCc4ccccc4)c(CCC(=O)O)c3)C(=O)N(CC(C)(C)CO)c3ccc(Cl)cc32)c1OC` is 147 to 149 °C; for `CC(=O)Oc1ccc(C2CCC(=O)CC2)cc1` it is 104 to 106 °C.
The figure for `NC(=O)CNC(=O)c1cccc(-c2ccc3c(c2)N(c2ccc(Cl)cc2Cl)CC3)c1` is 184 to 186 °C.
The figure for `Cc1cc(C)c(-c2c(OCOCC(C)C)oc(-c3ccsc3)c(C)c2=O)c(C)c1` is 102 to 104 °C; for `CC1(C#CC2(C(F)(F)F)C=NC(=O)Nc3ccc(Cl)cc32)CC1` (stereo unspecified) it is 196 to 198 °C.
The compound `CSc1c(NC(C)=O)cnc2ccccc12` gave a melting point of 137 to 138 °C.
The figure for `Cn1c(Cl)c(Cl)c2cnc(NC(=O)c3ccc([C@](C)(O)CO)cc3)cc21` is 205 to 208 °C; for `Cc1cc(NC(=O)C(=O)N2C(C)COCC2C)cc(C)c1S(=O)(=O)C[N+](=O)[O-]` (stereo unspecified) it is 140 to 141 °C; for `CCON=C(C)c1ccc2c(c1)ncn2-c1cccc(-c2cccnc2)c1` it is 105 to 106 °C.
For the compound `C=CCOc1cc(OC(=S)N2CCSC2)ccc1Cl`, the melting point was in the range of 104 to 106 °C.
The figure for `COC(=O)CC[C@@H](Cc1cn(Cc2ccccc2)c2ccccc12)NC(=O)CCCCCCc1ccccc1` is 107 to 109 °C; for `CC1(C)CCC(C)(C)c2cc(C(=O)SCc3ccc(C(=O)O)cc3)ccc21` it is 150 to 151 °C; for `CCOc1nc(C(F)(F)F)cc(=O)n1-c1cc(O)c(Br)cc1F` it is 160 to 161 °C.
Compound `CCOC(=O)c1c(C)cc2nc(CO)n(-c3ccccc3Cl)c(=O)c2c1C` showed a melting point of 151 to 152 °C.
The figure for `N#Cc1c(Cl)[nH]c2cccnc12` is > 250 °C.
To `O=c1cc(-c2ccc(O)c(F)c2)oc2ncccc12` belongs 267 to 268 °C; to `CC(C)N(CCN1C(=O)/C(=N/NC(=O)NC2CCCCC2)c2cc(Br)ccc21)C(C)C`, 155 to 156 °C.
To `S=C(NCCCCN(Cc1ccc(Cl)c(Cl)c1)c1ccc(Br)cn1)NCCCn1ccnc1` belongs 139 to 141 °C; to `CCCC(=O)Nc1n[nH]c2cc(-c3ccc(OC)cc3)ccc12`, 210 °C; to `Cn1nc2nc(-c3ccc(N)c(C#N)c3)cc(C(F)(F)F)c2c1-c1ccccc1`, 295 °C.
`COc1ccccc1Oc1c(Cl)nc(-c2ccncc2)nc1NS(=O)(=O)c1ccc(C)cn1` registered a melting point of 177 to 179 °C.
To `COc1ccc(C(=O)Oc2ccc(C(=O)O)cc2)cc1C12CC3CC(CC(C3)C1)C2` belongs 265 to 267 °C.
Take `COC(=O)COc1ccc(C(C)=O)cc1C`: the melting point lay within 51 to 53 °C.
The figure for `O=C(O)C(=O)c1ccc(OCCCOc2ccccc2)cc1` is 50 to 52 °C; for `CCCCCCCCCC(O)CCc1ccc(O)c(OC)c1` (stereo unspecified) it is 66 to 68 °C.
Regarding `COc1ccc(C(=O)c2ccc(=O)[nH]c2C)cc1`, the melting point is 228 to 230 °C.
The figure for `Cc1c(C(=O)NC2C3(C)CCC(C3)C2(C)C)c2ccc(Cl)c(Cl)c2n1CCCNS(C)(=O)=O` (stereo unspecified) is 150 to 154 °C; for `CC(C)OC1CC(O)C(=O)N1S(=O)(=O)c1ccccc1` (stereo unspecified) it is 127 to 129 °C.
To `O=C1CC2CCCC3(C2)c2cccn2CCN13` (stereo unspecified) belongs 130 to 132 °C; to `CC(C)OP(=O)(/C=C/CCn1cnc2c(N)nc(N)nc21)OC(C)C`, 211 to 213 °C; to `Cc1ccc(S(=O)(=O)OC2=C(Br)C(=O)c3ccc4c(c3C2=O)CCC(C)(C)O4)cc1`, 168 to 170 °C.
To `CN(C)C(=O)C#C[C@H]1CC[C@H](N(C)C(=O)OC(C)(C)C)CC1` belongs 115 to 117 °C; to `Fc1ccc(CSc2nnc(-c3ccc4c(c3)CCO4)o2)cc1F`, 138 to 139 °C.
With `COc1ccc(NC(=O)OC(C)(C)C)c(C(=O)NCCc2ccc(N=C(N)c3cccs3)cc2)c1`, the melting point was 190 to 192 °C.
The figure for `CC(C)CS(=O)(=O)c1ccc(N)c(S(=O)(=O)CC(C)C)c1` is 118 to 120 °C.
Regarding `N=C(N)NNC(=O)c1cccc(-c2csc(N=C(N)N)n2)n1`, the melting point was in the range of 194 to 196 °C.
The figure for `O=C1[C@@H](CCCO)O[C@H](c2ccccc2)c2ccccc2N1Cc1ccccc1` (relative stereo) is 59 to 62 °C; for `COc1cc(Cc2cnc(NC=O)nc2N)cc(OC)c1OC` it is 240 to 242 °C; for `CCCCc1nc(C(O)C(C)(C)C)c(C(N)=O)n1Cc1ccc(-c2ccccc2-c2nnn[nH]2)cc1` (stereo unspecified) it is 157 to 160 °C.
For `C(=C1CCCc2cccnc21)c1ccccc1`, the melting point was 58 to 59 °C.
`N#CCSc1nc2ccc(Cl)nc2s1`: the melting point was 112 to 114 °C.
The figure for `CC(CO)(CO)NCc1c2ccc3ccccc3c2cc2ccsc12` is 212 to 215 °C; for `C[C@@H]1CCCC[C@H]1C(=O)O` (relative stereo) it is 51 to 53 °C; for `CC(=O)CCCCCCC(CC(C)C(O)C(N)CO)c1cccs1` (stereo unspecified) it is 96 to 99 °C.
To `CCCc1ccc(OCCN(C(=O)n2cccn2)c2ncnc3ccccc23)c(C)c1` belongs 114 to 115 °C; to `CCCCCC1(C#N)CCC(c2ccc(-c3ccc(CCC)cc3)cc2)CC1` (stereo unspecified), 75 °C; to `CC1(C)Cc2cccc(Oc3ccc(N)cc3Cl)c2O1`, 102 to 104 °C.
To `CC(c1ccc(Cl)cc1Cl)C1(c2cccnc2)OC=CC1=O` (stereo unspecified) belongs 111 to 112 °C.

Source of the values: a melting point compilation (Tetko et al.; mined from patent text by program, amines drawn as free bases though some values may be those of a salt).
